Patent USRE33375E, “Treatments employing drug-containing matrices for introduction into cellular lesion areas” (Matrix Pharmaceuticals, Inc., priority 1988, dated 1990)
Where a name gives a salt, the structure may show the parent alone. Marks after values point to notes of the source that are not given here.

Key:
[1] = tested on: experimental murine fibrosarcoma; assay: Tumor regrowth delay on weekly treatment (curative potential); format: in vivo, murine; female C3H/He mice
Description: (§1) In another experiment the curative potential of drug matrix formulations was evaluated in the experimental murine fibrosarcoma model. Briefly, female C3H/He mice bearing a single experimental tumor produced as previously described were treated at weekly intervals with formulations containing 5-fluorouracil (50 mg/kg); bovine collagen BC (Collagen Corp., Palo Alto, Calif.); epinephrine (Sigma Chemical Co., St. Louis, Mo.); and PBS. WBC's were determined on Day 4 following each treatment cycle and skin reaction on […] after each treatment cycle. Treatment was discontinued for all grops when 3 of 4 experiment groups reach 4×initial tumor volume. When tumors reached a volume of 150 mm^3 the mice were randomly assigned to the following groups:
(§2) 2. 5-FU-PBS i.p.; 5-FU (23 mg/ml) was combined 1:1 with PBS; 0.1 ml injected/mouse i.p.
(§3) 3. 5-FU-PBS i.t.; 5-FU (23 mg/ml) was combined 1:1 with PBS; 0.1 ml injected/tumor i.t.
(§4) 4. 5-FU-BC i.t.; 5-FU (23 mg/ml) was combined 1:1 with bovine collagen (36 mg/ml); 0.1 ml injected i.t.

white blood cells = assay: White blood cell count in tumor-bearing mice
Description: (§5) In the next study 5-fluorouracil (5-FU) (Sigma Chem. Co., St. Louis, Mo.) with and without epinephrine (Sigma) suspended in saline by sonication (60 mg/ml) and mixed 1:1 with bovine collagen (BC) (Collagen Corp., Palo Alto, Calif.) (36 mg/ml) or normal saline. The subjects were 25 gm 12 week-old female C3H/He mice (Bantin and Kingman, Fremont, Calif.) bearing the transplatable experimental murine fibrosarcoma propagated intradermally as previously described.
(§6) On day four post-treatment, white blood cells (wbc) were counted by sampling blood from the tail, dilution in Turk's solution and counting in a hemocytometer. On day eight post-treatment, skin reaction is overlying tissue was graded for untoward response.
(§7) The adriamycin in distilled water (4.45 mg/ml) was mixed with 36 mg/ml bovine collagen (BC) 1:1 to yield a composition ratio of 2.25 mg adriamycin:18 mg BC/ml.
^4 White Blood Cells measured on Day 4 post injection by sampling fro
the tail of treatment mice.
(§8) In the next study vincristine (VCR) was dissolved in saline (0.6 mg/ml) by sonication and mixed 1:1 with bovine collagen (36 mg/ml). Otherwise, the procedure was the same.
In the next study a combination of bleomycin sulfate (Sigma Chemical Co., St. Louis, Mo.) (15 mg/kg) and epinephrine (5 mg/kg) employed in a bovine collagen composition were evaluated for antitumor effect in the transplantable experimental murine fibrosarcoma model previously described.
as §1, §2, §3, §4
(§9) In another experiment the influence of matrix composition on antitumor activity of 5-fluorouracil (100 mg/kg) was evaluated in the experimental murine fibrosarcoma model previously described. 5-FU (Sigma Chemical Co., St. Louis, Mo.) was combined as described below with bovine collagen BC (Collagen Corp., Palo Alto, Calif.); bovin fibronogen (95% clottable, Sigma), bovine thrombin (2000NIH units/mg, Sigma) and Ringer's Solution For Injection (RFI, Abbott Labs., North Chicago, Ill.). When tumors reached a volume of 150 mm^3 the mice (Bantin and Kingman, Fremont, Calif.) were assigned randomly to the following groups, (3-4 mice/group):
(§10) 3. 5-FU-Fibrinogen: 5-FU (36 mg/ml) combined 1:1 with the fibrinogen preparation described in 2 above, 0.1 ml i.t.
(§11) 4. 5-FU-BC-Fibrinogen: 5-FU (36 mg/ml) combined 1:1 with a fibrinogen-BC preparation consisting of fibrinogen (30 mg/ml); BC (36 mg/ml) dispersed in RFI containing 1 NIH unit of thrombin activity/ml, 0.1 ml i.t.

skin overlying the tumor = assay: Skin reaction of the skin overlying the tumor
Description: as §6
(§12) The skin reaction is scored as follows: […]
as §12, §1, §9, §10, §11
In the next experiment 5-fluorouracil-matrix implant in combination with X-rays was evaluated. Single RIF-1 tumors were grown on the back of female C3H mice (12-16 weeks) (Bantin and Kingman, Fremont, Calif.) as previously described. When the tumors reached volumes of 150 mm^3, they were divided into the following groups, (4-6 mice/group):
(§13) Tumor bearing mice were irradiated in lead jigs exposing only the tumor and overlying skin with a 250 kVp X-ray machine at a dose rate of 120 rad/min. The tumors of the treated and untreated mice were measured three times per week and assayed for regrowth delay and skin reactions as previously described.

[2] = tested on: experimental murine fibrosarcoma (RIF-1 cells); assay: Regrowth delay of the treated transplantable murine fibrosarcoma; format: in vivo, murine; female C3H mice; conditions: for Regrowth Delay: time to 4 times initial treatment volume (150 mm^3), Mean ± S.E.
Description: times their initial treatment volume (150 mm^3). Increasing values
indicate enhanced therapeutic effect.
When the tumors reached a volume of 150 mm^3, the mice were assigned randomly to the following groups (4-6 mice per group): (1) untreated controls; (2) 5-FU (100 mg/kg), i.p., 0.1 ml/mouse; (3) 5-FU (100 mg/kg), i.t., 0.1 ml/tumor; (4) 5-FU-BC (100 mg 5-FU/kg dispersed in BC (18 mg/ml)), i.t., 0.1 ml/tumor; 5-FU-EPI-BC (100 mg 5-FU/kg) 5 mg EPI/kg dispersed in BC (18 mg/ml), i.t., 0.1 ml/tumor.
In the next study doxorubicin-HCl (ADM) (Adriamycin) was studied using the above-described protocol. The adriamycin in distilled water (4.45 mg/ml) was mixed with 36 mg/ml bovine collagen (BC) 1:1 to yield a composition ratio of 2.25 mg adriamycin:18 mg BC/ml.
^2 Tumor Regrowth Delay (RD). Time (days) required for tumors to grow
to 3 × its original treatment volume (~150 mm^3).
Increasing RD indicate increased tumor cell killing.

[3] = tested on: uninjected contralateral fibrosarcoma (RIF-1 cells); assay: Regrowth delay of the uninjected contralateral fibrosarcoma; format: in vivo, murine; female C3H mice; conditions: for Regrowth Delay, uninjected contra: time to 4 times initial volume, Mean ± S.E.
Description: A transplantable experimental murine fibrosarcoma (2×10^5 RIF-1 cells) was grown intradermally in the flank of 5 month old female C3H mice (Bantin and Kingman, Fremont, Calif.). Cis-diamine dichloroplatinum (II) (cis-Pt) (Sigma Chemical Co., St. Louis, Mo.) was dissolved in sterile saline at concentrations of 0.8, 1.6 and 3.2 mg/ml and mixed 1:1 with bovine collagen (BC) (36 mg/ml) in PBS 20 mM phosphate, 140 mM NaCl (Collagen Corp., Palo Alto, Calif.). Doses of 2, 4 and 8 mg/kg host of cis-Pt were delivered in 0.1 ml of the collagenous drug mixture to the center of the tumor growing in the flank (intratumorally, i.t.), and the tumor measured. The growth of a second uninjected tumor on the opposing flank of the same mouse was also measured. In addition, cis-Pt dissolved in PBS without collagen was administered intraperitoneally (i.p.) to other tumor-bearing mice (4 tumors/group) to monitor the effects on tumor growth of the drug without collagen. Furthermore, the effect of bovine collagen on tumor growth was also studied by injection of 0.1 ml of collagen, (18 mg/ml) into the experimental fibrosarcomas, as previously described. The growth of the tumors was monitored three times per week by caliper measurements of three perpendicular diameters of the tumor and calculating tumor volume from the formula
*Regrowth Delay determined as the time (days) for tumors to grow to four
times their initial treatment volume (150 mm^3).
as §5, §7
^3 Contralateral Tumor RD (CRD). Time (days) required for untreated
contralateral tumors to grow to 3× its original treatment volume
(~150 mm^3). Decreasing RD indicate enhanced regionalization of
drug injected when compared to RD.
as §8
In the next study a combination of bleomycin sulfate (Sigma Chemical Co., St. Louis, Mo.) (15 mg/kg) and epinephrine (5 mg/kg) employed in a bovine collagen composition were evaluated for antitumor effect in the transplantable experimental murine fibrosarcoma model previously described. […]

RIF-1 tumor [4] = assay: RIF-1 tumor regrowth delay, 5-fluorouracil-matrix implant in combination with X-rays; format: in vivo, female C3H mice; conditions: 5-FU 75 mg/Kg, i.p.
Description: In the next experiment 5-fluorouracil-matrix implant in combination with X-rays was evaluated. […] When the tumors reached volumes of 150 mm^3, they were divided into the following groups, (4-6 mice/group):
2. X-rays (1000 rad.) alone
3. Collagen-matrix (CM) i.t. 5 min. before X-rays
4. 5-Fluorouracil (5-FU) (75 mg/Kg) i.p.
6. 5-FU i.p. 5 min before X-rays
as §13

[5] = Acute animal toxicity / survival after injection; conditions: 15 mg/kg
Description: as §5, §7

RIF-1 tumor [6] = assay: RIF-1 tumor regrowth delay, cis-DDP-matrix implant in combination with hyperthermia; format: in vivo, female C3H mice; conditions: cis-DDP 6 mg/Kg, i.p.
Description: In the next study cis-DDP-matrix (DDP=cis-Pt) implant in combination with hyperthermia was evaluated.
2. Hyperthermia (43° C., 30 min) alone
3. Hyperthermia+collagen-matrix (CM)+epinephrine (epi) (2 mg/Kg)
4. cis-DDP (6 mg/Kg) i.p.
6. cis-DDP (i.p.) 30 min before hyperthermia
7. cis-DDP-CM-epi (i.t.) 30 min before hyperthermia.
The tumor bearing mice were heated in a precision water bath with 30 gauge thermistor thermometry (±0.2° C.).

[7] = 5-FU 50 mg/kg on Days 0, 8 and 16, i.p.
[8] = 5-FU 50 mg/kg on Days 0, 8 and 16, i.t. (± Epinephrine 5 mg/kg)
[9] = 5-FU 100 mg/kg, i.p., mean ± S.E.
[10] = 5-FU 100 mg/kg, i.t. (± EPI 5 mg/kg), mean ± S.E.
[11] = BLM 15 mg/kg, i.p., mean ± S.E.
[12] = BLM 15 mg/kg, i.t. (± EPI 5 mg/kg), mean ± S.E.

O=c1[nH]cc(F)c(=O)[nH]1 [5-FU, 5-fluorouracil]
Tumor Regrowth 4 × [1, 7]: 10.3 ± 1.3 days
Tumor Regrowth 4 × [1, 8]: 14.9 ± 3.8 days
WBC D-12 (white blood cells; [7]): 109 ± 28
WBC D-12 (white blood cells; [8]): 107 ± 25
White Blood Cells/mm^3 (white blood cells; 5-FU 100 mg/kg, i.p., day four post-treatment): 4.5 ± 0.6 Cells/mm^3 (× 10^3)
White Blood Cells/mm^3 (white blood cells; 5-FU 100 mg/kg, i.t. (± EPI 5 mg/kg), day four post-treatment): 3.5 ± 0.5 Cells/mm^3 (× 10^3)
Skin Reaction D-8 (skin overlying the tumor; [7]): 1.2 ± 1.1
Skin Reaction D-8 (skin overlying the tumor; [8]): 1.0 ± 0.6
Skin Reaction (skin overlying the tumor; 5-FU 75 mg/Kg, i.p. + X-rays (1000 rad), scored as previously described (0-3)): 2
Skin Reaction (skin overlying the tumor; 5-FU 75 mg/Kg, i.p., no X-rays, scored as previously described (0-3)): 2
Skin Reaction (skin overlying the tumor; 5-FU 100 mg/kg, i.p., Day 8, 0 = no effect, 1 = superficial inflammation, 2 = scab, 3 = ulcer): 0.7 ± 0.4
Skin Reaction (skin overlying the tumor; 5-FU 100 mg/kg, i.t. (± EPI 5 mg/kg), Day 8, 0 = no effect, 1 = superficial inflammation, 2 = scab, 3 = ulcer): 0
Tumor Regrowth Delay [2, 9]: 13.1 ± 1.4 days
Tumor Regrowth Delay [2, 10]: 14.5 ± 0.9 days
Untreated Contralateral Regrowth Delay [3, 9]: 13.1 ± 1.4 days
Untreated Contralateral Regrowth Delay [3, 10]: 11.1 ± 0.6 days
2× Tumor Regrowth Delay (RIF-1 tumor [4]; 5 min before X-rays (1000 rad)): 12.6 ± 2.8 days
2× Tumor Regrowth Delay (RIF-1 tumor [4]; no X-rays): 8.5 ± 1.1 days

COc1cccc2c1C(=O)c1c(O)c3c(c(O)c1C2=O)C[C@@](O)(C(=O)CO)C[C@@H]3O[C@H]1C[C@H](N)[C@H](O)[C@H](C)O1 [Free ADM, doxorubicin-HCl]
White Blood Cells/mm^3 (white blood cells; ADM 15 mg/kg, i.t., Day 4 post injection): 4.1 ± 0.69 Cells/mm^3 (× 10^3)
Skin Reaction (skin overlying the tumor; ADM 15 mg/kg, i.p., Day 8 post injection, 0 = no effect, 1 = superficial inflammation, 2 = scab, 3 = ulcer): 1.5 ± 0.5
Skin Reaction (skin overlying the tumor; ADM 15 mg/kg, i.t., Day 8 post injection, 0 = no effect, 1 = superficial inflammation, 2 = scab, 3 = ulcer): 2.0
toxicity of intratumoral injection ([5]; intratumoral injection): non-toxic
survival ([5]; mouse, in vivo): 100%
mortality ([5]; mouse, in vivo, ip): 75%
survival ([5]; mouse, in vivo, ip): 25%
Tumor Regrowth Delay, Treated ([2]; ADM 15 mg/kg, i.t., time to 3 × original treatment volume (~150 mm^3)): 13.7 ± 1.7 days
Tumor Regrowth Delay, Contralateral ([3]; ADM 15 mg/kg, i.t., untreated contralateral tumor, time to 3× original treatment volume (~150 mm^3)): 8.3 ± 0.75 days

CC[C@]1(O)C[C@H]2CN(CCc3c([nH]c4ccccc34)[C@@](C(=O)OC)(c3cc4c(cc3OC)N(C=O)[C@H]3[C@@](O)(C(=O)OC)[C@H](OC(C)=O)[C@]5(CC)C=CCN6CC[C@]43[C@@H]65)C2)C1 [VCR, vincristine]
White Blood Cells/mm^3 (white blood cells; VCR 2 mg/kg, i.p.): 7.4 ± 1.3 Cells/mm^3 (× 10^3)
Skin Reaction (skin overlying the tumor; VCR 2 mg/kg, i.p., scored as in the preceding studies (0-3)): 0.6 ± 0.4
Tumor Regrowth Delay ([2]; VCR 2 mg/kg, i.p.): 10.6 ± 2.0 days
Untreated Contralateral Regrowth Delay ([3]; VCR 2 mg/kg, i.p.): 10.6 ± 2.0 days

N.N.[Cl][Pt][Cl] [cis-Pt, Cis-diamine dichloroplatinum (II)]
Tumor Regrowth Delay (2×) (RIF-1 tumor [6]; 30 min before hyperthermia (43° C., 30 min)): 8.9 ± 0.8 days
Tumor Regrowth Delay (2×) (RIF-1 tumor [6]; no hyperthermia): 6.5 ± 1.5 days
Regrowth Delay ([2]; i.p., 2 mg/kg cis-Pt): 7.2 ± 0.1 days
Regrowth Delay ([2]; i.p., 4 mg/kg cis-Pt): 9.1 ± 0.7 days
Regrowth Delay ([2]; i.p., 8 mg/kg cis-Pt): 9.9 ± 1.0 days
Regrowth Delay ([2]; i.t., 2 mg/kg cis-Pt, injected tumor): 9.5 ± 0.5 days
Regrowth Delay ([2]; i.t., 4 mg/kg cis-Pt, injected tumor): 10.3 ± 0.7 days
Regrowth Delay ([2]; i.t., 8 mg/kg cis-Pt, injected tumor): 11.5 ± 0.04 days
Regrowth Delay, uninjected contra ([3]; opposing tumor injected i.t. with 2 mg/kg cis-Pt): 9.3 ± 1.2 days
Regrowth Delay, uninjected contra ([3]; opposing tumor injected i.t. with 4 mg/kg cis-Pt): 8.9 ± 0.7 days
Regrowth Delay, uninjected contra ([3]; opposing tumor injected i.t. with 8 mg/kg cis-Pt): 9.9 ± 0.9 days

bleomycin sulfate [BLM]
Tumor Regrowth Delay [2, 11]: 7.5 ± 0.9 days
Tumor Regrowth Delay [2, 12]: 8.9 ± 0.6 days
Untreated Contralateral Regrowth Delay [3, 11]: 7.5 ± 0.9 days
Untreated Contralateral Regrowth Delay [3, 12]: 7.0 ± 0.7 days
